From ChEMBL document CHEMBL5543086, “Discovery of novel NSAID hybrids as cPLA2/COX-2 dual inhibitors alleviating rheumatoid arthritis via inhibiting p38 MAPK pathway” (Eur J Med Chem, 2024) come the findings set out here.

Structures are written as SMILES. The source made the active and inactive calls.

Series [1] deals with RAW264.7. Put plainly: Antiinflammatory activity against LPS-induced mouse RAW264.7 cells assessed as inhibition of cPLA2 protein expression pretreated for 1 hr followed by LPS stimulation and measured after 24 hrs by Western blot analysis. In kind it is functional, cell-based. The conditions noted are these: dose 2.5-10 µM, time 25.0 hrs. For orientation: In western blotting, separated proteins are transferred to a membrane and probed.

In series [2] the test system is Rattus norvegicus. Put plainly: Antiarthritic activity in Freund's complete adjuvant induced Lewis rat model of arthritis assessed as reduction in IL-6 level in serum at 20 mg/kg, po administered every 24 to 48 hrs for 28 days post immunization starting from day 8 post immunization by ELISA. It is filed as functional, organism-based. The conditions noted are these: time 21.0 day.

In series [3] the test system is RAW264.7. Put plainly: Antiinflammatory activity in LPS-induced mouse RAW264.7 cells assessed as inhibition of PGE2 production at 10 uM pretreated for 1 hr followed by LPS stimulation and measured after 24 to 48 hrs by ELISA. In kind it is functional, cell-based. The conditions noted are these: time 25-49 hrs. In general terms: In an ELISA, binding on a coated surface is turned into a signal by an enzyme label.

A short description of series [4]: Toxicity in male Wistar rat assessed as gastrointestinal damage by measuring level-2 ulcers with 1 to 3 mm area at 50 mg/kg administered by gavage and measured after 6 hrs. In kind it is organism-based. The conditions noted are these: in vivo, po.
In series [5] the test system is Rattus norvegicus. Put plainly: Antiarthritic activity in Freund's complete adjuvant induced Lewis rat model of arthritis assessed as reduction in TNFalpha level in serum at 20 mg/kg, po administered every 24 to 48 hrs for 28 days post immunization starting from day 8 post immunization by ELISA. In kind it is functional, organism-based. The conditions noted are these: time 21.0 day.

Series [6] can be described thus: Toxicity in male Wistar rat assessed as gastrointestinal damage by measuring number of ulcers at 50 mg/kg administered by gavage and measured after 6 hrs (reference value: 0). It is filed as organism-based. The conditions noted are these: in vivo, po.
Series [7] concerns Rattus norvegicus. Put plainly: Immunomodulatory activity in Freund's complete adjuvant induced Lewis rat model of arthritis assessed as reduction in IL-17 level in serum at 20 mg/kg, po administered every 24 to 48 hrs for 28 days post immunization starting from day 8 post immunization by ELISA. In kind it is functional, organism-based. The conditions noted are these: time 21.0 day.

Series [8] deals with Rattus norvegicus. Put plainly: Analgesic activity in Freund's complete adjuvant induced Lewis rat model of arthritis assessed as increase in mechanical paw withdrawal threshold at 20 mg/kg, po administered every 24 to 48 hrs for 28 days post immunization starting from day 8 post immunization. In kind it is functional, organism-based. The conditions noted are these: time 21.0 day.

Series [9] relates to Rattus norvegicus. Put plainly: Immunomodulatory activity in Freund's complete adjuvant induced Lewis rat model of arthritis assessed as increase in anti-IL-10 antibody expression in knee joint slices at 20 mg/kg, po administered every 24 to 48 hrs for 28 days post immunization starting from day 8 post immunization by immunohistochemistry analysis. In kind it is functional, organism-based. The conditions noted are these: time 21.0 day.

The test system of series [10] is RAW264.7. Put plainly: Antiinflammatory activity in LPS-induced mouse RAW264.7 cells assessed as inhibition of NO production at 10 uM pretreated for 1 hr followed by LPS stimulation and measured over 48 hrs by griess reagent based assay. In kind it is functional, cell-based. The conditions noted are these: time > 49.0 hrs. A general note: Nitrite, measured by Griess reagent, commonly stands in for NO production.

The test system of series [11] is RAW264.7. Put plainly: Antiinflammatory activity in LPS-induced mouse RAW264.7 cells assessed as inhibition of NO production pretreated for 1 hr followed by LPS stimulation and measured after 24 hrs by griess reagent based assay. In kind it is functional, cell-based.
The subject of series [12] is Rattus norvegicus. Put plainly: Antiarthritic activity in Freund's complete adjuvant induced Lewis rat model of arthritis assessed as reduction in arthritis score at 20 mg/kg, po administered every 24 to 48 hrs for 28 days post immunization starting from day 8 post immunization. It is filed as functional, organism-based. The conditions noted are these: time 21.0 day.

The test system of series [13] is RAW264.7. Put plainly: Antiinflammatory activity against LPS-induced mouse RAW264.7 cells assessed as inhibition of iNOS protein expression pretreated for 1 hr followed by LPS stimulation and measured after 24 hrs by Western blot analysis. In kind it is functional, cell-based. The conditions noted are these: dose 2.5-10 µM, time 25.0 hrs.
A short description of series [14]: Toxicity in male Wistar rat assessed as gastrointestinal damage by measuring level-1 ulcers with <1 mm area at 100 mg/kg administered by gavage and measured after 6 hrs. It is filed as organism-based. The conditions noted are these: in vivo, po.
Series [15] can be described thus: Toxicity in male Wistar rat assessed as gastrointestinal damage by measuring level-3 ulcers with >3 mm area at 50 mg/kg administered by gavage and measured after 6 hrs. It is filed as organism-based. The conditions noted are these: in vivo, po.
The test system of series [16] is Rattus norvegicus. Put plainly: Immunomodulatory activity in Freund's complete adjuvant induced Lewis rat model of arthritis assessed as increase in CD4positive CD25positive Treg cells in peripheral blood at 20 mg/kg, po administered every 24 hrs for 28 days post immunization starting from day 8 post immunization by flow cytometry analysis. In kind it is functional, organism-based. The conditions noted are these: time 21.0 day.

Series [17] is described as follows: Nephrotoxicity in male Wistar rat assessed as effect on blood urea nitrogen level at 20 mg/kg, po administered for 3 days. It is filed as toxicity, organism-based. The conditions noted are these: in vivo, 72 h, time 3 day.
Series [18] deals with Rattus norvegicus. Put plainly: Immunomodulatory activity in Freund's complete adjuvant induced Lewis rat model of arthritis assessed as increase in CD4positive CD25positive Treg cells in spleen at 20 mg/kg, po administered every 24 hrs for 28 days post immunization starting from day 8 post immunization by flow cytometry analysis. The conditions noted are these: time 21.0 day. It is filed as functional, organism-based.

In series [19] the test system is Rattus norvegicus. Put plainly: Antiarthritic activity in Freund's complete adjuvant induced Lewis rat model of arthritis assessed as reduction in RORgammat protein expression at 20 mg/kg, po administered every 24 to 48 hrs for 28 days post immunization starting from day 8 post immunization by Western blot analysis. The conditions noted are these: time 21.0 day. In kind it is functional, organism-based.

Series [20] relates to Rattus norvegicus. Put plainly: Antiarthritic activity in Freund's complete adjuvant induced Lewis rat model of arthritis assessed as reduction in joint tissue damage by measuring reduction in synovial hyperplasia at 20 mg/kg, po administered every 24 hrs for 28 days post immunization starting from day 8 post immunization by H and E staining based analysis. The conditions noted are these: time 21.0 day. In kind it is functional, organism-based.

Series [21] deals with Rattus norvegicus. Put plainly: Antiarthritic activity in Freund's complete adjuvant induced Lewis rat model of arthritis assessed as inhibition of left hind paw edema at 20 mg/kg, po administered every 24 to 48 hrs for 28 days post immunization starting from day 8 post immunization. It is filed as functional, organism-based. The conditions noted are these: time 21.0 day.

In series [22] the target is T1, Cytosolic phospholipase A2 (Mus musculus) (UniProt P47713).
T1 sequence (whole entry): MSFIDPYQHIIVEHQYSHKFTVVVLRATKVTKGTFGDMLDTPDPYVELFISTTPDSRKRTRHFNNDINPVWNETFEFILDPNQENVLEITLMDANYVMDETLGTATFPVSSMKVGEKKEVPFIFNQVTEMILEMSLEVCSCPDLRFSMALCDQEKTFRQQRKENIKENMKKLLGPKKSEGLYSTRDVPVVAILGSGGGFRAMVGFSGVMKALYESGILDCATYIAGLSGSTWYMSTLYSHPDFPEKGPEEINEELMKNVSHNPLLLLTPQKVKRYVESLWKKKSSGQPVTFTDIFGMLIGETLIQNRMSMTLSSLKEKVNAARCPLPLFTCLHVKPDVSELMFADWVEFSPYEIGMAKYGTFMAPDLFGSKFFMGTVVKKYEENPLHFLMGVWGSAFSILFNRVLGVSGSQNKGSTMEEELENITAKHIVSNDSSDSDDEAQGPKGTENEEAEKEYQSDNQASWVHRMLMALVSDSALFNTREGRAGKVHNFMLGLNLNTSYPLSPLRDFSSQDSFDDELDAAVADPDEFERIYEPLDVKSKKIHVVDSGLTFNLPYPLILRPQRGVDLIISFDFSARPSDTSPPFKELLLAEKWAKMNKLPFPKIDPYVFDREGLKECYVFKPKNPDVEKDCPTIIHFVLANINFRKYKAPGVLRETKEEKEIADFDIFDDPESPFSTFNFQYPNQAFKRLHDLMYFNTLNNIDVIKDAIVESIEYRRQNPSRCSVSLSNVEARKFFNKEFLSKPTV
Put plainly: Binding affinity to cPLA2 in LPS-induced mouse RAW264.7 cells assessed as thermal stability at 45 to 53 degreeC at 30 uM pretreated with LPS for 24 hrs followed by compound addition and measured after 2 hrs by CETSA. In kind it is cell-based.

In general, IC50 refers to the concentration needed to halve the response being measured. Turning to `CCCCC/C=C\C/C=C\C/C=C\C/C=C\CC/C=C(/OC(=O)C(C)c1ccc(C(=O)c2ccccc2)cc1)C(F)(F)F` (configuration not stated), the Activity result with RAW264.7 [1] was “Dose-Dependent Effect”; in series [4], 0%; in [6], 0; in the series with RAW264.7 [13], “Dose-Dependent Effect”; in [14], 86%; in [15] it was 0%. In addition, the Activity result in series [17] is given as “Non-Toxic”. For the same compound, the outcome in the series on Rattus norvegicus [2], in the series on RAW264.7 [3], with Rattus norvegicus [5], in the series on Rattus norvegicus [7], with Rattus norvegicus [8] and in the series with Rattus norvegicus [9] was Active. Further, the outcome in the series with RAW264.7 [10], in the series on Rattus norvegicus [12], in the series with Rattus norvegicus [16], in the series with Rattus norvegicus [18], in the series on Rattus norvegicus [19] and with Rattus norvegicus [20] was Active. Besides, the result (in the series on Rattus norvegicus [21]; in series [22]) was Active. Further, the IC50 in the series on RAW264.7 [11] is 3.85 µM.
